Source: patent EP1538164A1, “RGD targeting moiety its production and use” (Vectron Therapeutics AG, priority 2003, dated 2005)
Positions of bridges follow the written chain, without caps; N, C: chain ends. Residues, ends and D or L forms follow the SMILES beside them.

Key:
HUVEC [1] = test: Competition of liposome binding by free competitors (HUVEC); set-up: species or system human
Description: Fig. 1: Binding of carboxyfluorescein-labelled RGD-10 to HUVECs. Thin line - cells without peptide, bold line - cells incubated with CF-labelled RGD-10. Fig. 2: Titration of inhibition of RGD-10 binding by peptides RGD-10 or RGD-4C analyzed by cell ELISA. Fig. 3: Structure of lipopeptides consisting of a peptide ligand with an acetylated Nterminus, the doo spacer linked to a dipalmitoyl-glycero-succinyl-lysine anchor. Fig. 4: A) Binding of RGD10 liposomes to HUVEC or B16.F10. Liposomes containing the RGD10-LP or RGD10-LP3 lipopeptide at a conc. of 0.1 mol% (thin line), 1 mol% (normal line), or 5 mol% (bold line) were analyzed for binding to HUVECs or B16.F10 (marked with 0). Binding of liposomes lacking lipopeptides is indicated as dotted line. B.) Liposomes containing the RGD10LP3 lipopeptide at a conc. of 1 mol% were analyzed for binding to MeWo or A431 cells. Dotted line = cells alone, normal line = liposomes without lipopeptide, bold line, RGD10-LP3 liposomes. Fig. 5: Competition experiments. […] Thin line = cells alone, normal line = plus peptide or 5 doo, bold line = liposomes without competitor. Fig. 6: Cell binding and internalization of RGD-10-LP3 liposomes. Fluorescence microscopy analysis of binding of RGD10-LP3 liposomes or liposomes lacking lipopeptide (untargeted liposomes) to HUVECs at 4°C or 37°C. […] Fig. 7: Pharmacokinetic analysis of liposomes containing 1 mol% LP1, 1 mol% LP3, or 0.1 mol% LP3. Fig. 8: Antitumor effects of LP3-liposomes (Dox-LP3 liposomes) loaded with doxorubicin in comparison to untargeted liposomes (Dox liposomes) or free doxorubicin analyzed in a C26 murine colon carcinoma tumor model.
(§1) Thus, binding to integrin-expressing cells is specifically mediated by the RGD peptide.

B16.F10 = test: Competition of liposome binding by free competitors (B16.F10); set-up: species or system murine; settings: RGD10 LP1-containing liposomes
From the text: as §1

HUVEC [2] = test: Direct binding of carboxyfluorescein-labelled RGD-10 to HUVEC; set-up: species or system human; settings: synthetic carboxyfluorescein-labeled RGD-10 peptide, Fig. 1
Description: Fig. 1: Binding of carboxyfluorescein-labelled RGD-10 to HUVECs. Thin line - cells without peptide, bold line - cells incubated with CF-labelled RGD-10. Fig. 2: Titration of inhibition of RGD-10 binding by peptides RGD-10 or RGD-4C analyzed by cell ELISA. Fig. 3: Structure of lipopeptides consisting of a peptide ligand with an acetylated Nterminus, the doo spacer linked to a dipalmitoyl-glycero-succinyl-lysine anchor. Fig. 4: A) Binding of RGD10 liposomes to HUVEC or B16.F10. Liposomes containing the RGD10-LP or RGD10-LP3 lipopeptide at a conc. of 0.1 mol% (thin line), 1 mol% (normal line), or 5 mol% (bold line) were analyzed for binding to HUVECs or B16.F10 (marked with 0). Binding of liposomes lacking lipopeptides is indicated as dotted line. B.) Liposomes containing the RGD10LP3 lipopeptide at a conc. of 1 mol% were analyzed for binding to MeWo or A431 cells. Dotted line = cells alone, normal line = liposomes without lipopeptide, bold line, RGD10-LP3 liposomes. Fig. 5: Competition experiments. […] Fluorescence microscopy analysis of binding of RGD10-LP3 liposomes or liposomes lacking lipopeptide (untargeted liposomes) to HUVECs at 4°C or 37°C. […] Fig. 8: Antitumor effects of LP3-liposomes (Dox-LP3 liposomes) loaded with doxorubicin in comparison to untargeted liposomes (Dox liposomes) or free doxorubicin analyzed in a C26 murine colon carcinoma tumor model. […]

HDMEC = test: Peptide binding to HDMEC; set-up: species or system human; settings: compared with RGD-4C oxidized in two steps
From the text: For further analysis we selected 2C-RGD peptide RGD-10 ([…]). The RGD-10 peptide was synthesized with the sequence […], thus lacking the C-terminal aspartate residue and resulting in a neutral net charge. […] For these experiments RGD-4C was oxidized in a two-step process to obtain disulfide bonds between C1-C4 and C2-C3 described to be essential for high affinity binding (Assa-Munt, et al. (2001) Biochemistry 40: 2373-2378). Compared to RGD-4C, RGD-10 contains only 2 cysteine residues, which facilitates synthesis of oxidized peptides using a one-step oxidation reaction. Furthermore, RGD-10 contains two aromatic residues, which allows spectrophotometrical detection at 280 nm. […] Thus, RGD-10 binds with the same affinity to integrin-expressing cells as RGD-4C, however, is much simpler to produce.

[3] = test system: integrin-expressing cells; settings: titration of competition of RGD-10 binding, cell ELISA, Fig. 2
[4] = RGD10-LP3 liposomes (1 mol% lipopeptide), 100 µM competitor, Fig. 5
[5] = RGD10 LP1-containing liposomes (Example 3)

## C[C@H](N)C(=O)N[C@H]1CSSC[C@@H](C(=O)NCC(=O)O)NC(=O)[C@H](Cc2ccccc2)NC(=O)[C@@H]2CSSC[C@H](NC(=O)[C@H](CC(=O)O)NC1=O)C(=O)N[C@@H](CCCNC(=N)N)C(=O)NCC(=O)N[C@@H](CC(=O)O)C(=O)N2 [RGD-4C, reference compound] (H-ACDCRGDCFCG-OH; disulfide 2-10, 4-8; N-terminus and C-terminus assumed)
HUVEC [1]; [4]
  inhibition of binding of liposomes to HUVEC: completely inhibited
HUVEC [1]; [5]
  inhibition of binding of liposomes to HUVEC: completely inhibited
B16.F10
  inhibition of binding of liposomes to B16.F10: completely inhibited

## C[C@H](NC(=O)CN)C(=O)N[C@@H](CCCNC(=N)N)C(=O)N[C@@H](Cc1ccc(O)cc1)C(=O)N[C@H]1CSSC[C@@H](C(=O)N[C@@H](Cc2ccccc2)C(=O)N[C@@H](CC(=O)O)C(=O)NCC(=O)O)NC(=O)[C@H](CC(=O)O)NC(=O)CNC(=O)[C@H](CCCNC(=N)N)NC1=O [RGD-10] (H-GARYCRGDCFDG-OH; disulfide 5-9; N-terminus and C-terminus assumed)
HUVEC [2]
  binding to HUVEC: Direct binding
HDMEC
  binding strength to HDMEC: comparable strength as RGD-4C
HUVEC [1]; [4]
  inhibition of binding of liposomes to HUVEC: completely inhibited
HUVEC [1]; [5]
  inhibition of binding of liposomes to HUVEC: completely inhibited
B16.F10
  inhibition of binding of liposomes to B16.F10: completely inhibited
[3]
  IC50: ~200 nM
